Results reported in publication PMC8877291, “Design and Synthesis of Arylpiperazine Serotonergic/Dopaminergic Ligands with Neuroprotective Properties” (Molecules, 2022).

How the values were obtained:
[1] = system: SH-SY5Y neuroblastoma cells; assay: Neuroprotection against H2O2 in SH-SY5Y cells (MTT assay); type: cell-based, human; details: 3 h pretreatment, both concentrations (1 μM and 5 μM), then 400 μM H2O2 24 h
Experimental: Treatment of SH-SY5Y cells with 400 μM H2O2 for 24 h led to a reduction of cell viability of 72–76% (Figure 3). The protective effect of each compound was determined by pretreating the cells with the test compound for 3 h at the non-toxic doses of 1 μM and 5 μM, and subsequent treatment with 400 μM H2O2 for an additional 24 h.
(§1) SH-SY5Y neuroblastoma cells (cat. CRL-2266, ATCC) were cultured in a 1:1 mixture of Eagle’s Minimum Essential Medium (cat. 15-010-CVR, Corning) and Ham’s F12 medium (cat. 10-080-CVR, Corning). This medium was supplemented with 10% (v/v) Fetal Bovine Serum (cat. 35-079-CV, Corning), 1% (v/v) Glutamine (cat. ECB3000D, Euro Clone) and 1% (v/v) Penicillin—Streptomycin (cat.30-002-CI, Corning). Cells were cultivated at 37 °C with 5% CO2 at saturated humidity.
Determination of neuroprotection against H2O2 was performed using the MTT assay at 24 h. On day 1, 25,000 cells/well were seeded into 96-well plates in a volume of 100 μL. On day 2, the cells were pretreated (3 h) with two drug concentrations (1 μM and 5 μM) before being incubated with 400 μM H2O2 for 24 h. In all the experiments, the various drug-solvents (EtOH, DMSO) were added in each control to evaluate a possible solvent cytotoxicity. After 24 h incubation, MTT (0.5 mg/mL) was added to each well, and after 3–4 h incubation at 37 °C, the supernatant was removed. The formazan crystals were solubilized using 100 μL of DMSO/EtOH (1:1, v/v) and the absorbance values at 570 and 630 nm were determined on the microplate reader Victor 3 from PerkinElmer Life Sciences (Waltham, MA, USA).
Data were analyzed by applying the one-way repeated measures analysis of variance, and Bonferroni’s multiple comparison test followed as a post hoc test. Results are reported as mean SD of at least two to three independent experiments, performed in triplicate. Statistical significance was accepted at p < 0.05.

[2] = system: SH-SY5Y neuroblastoma cells; assay: Cytotoxicity in SH-SY5Y cells (MTT assay); type: cell-based, human; details: 48 h, dose range 0.1 to 100 μM
Experimental: Initially, the cytotoxicity of the target compounds was assessed by treating SH-SY5Y cells for 48 h with various concentrations of compounds (0.1 to 100 μM).
as §1
Determination of cell growth was performed using the MTT assay at 48 h. On day 1, 25,000 cells/well were seeded into 96-well plates in a volume of 100 μL. On day 2, the various drug concentrations ([…]–100 μM) were added. In all the experiments, the various drug-solvents (EtOH, DMSO) were added in each control to evaluate possible solvent cytotoxicity. After the established incubation time with drugs (48 h), MTT (0.5 mg/mL) was added to each well, and after 3–4 h incubation at 37 °C, the supernatant was removed. The formazan crystals were solubilized using 100 μL of DMSO/EtOH (1:1, v/v) and the absorbance values at 570 and 630 nm were determined on the microplate reader Victor 3 (PerkinElmer Life Sciences, Waltham, MA, USA).

SMILES | recovery of cell viability vs 400 μM H2O2 alone (in words) [1] | cytotoxicity (in words) [2]
COc1ccc(-c2cc(F)ccc2N2CCN(CCCCn3ncc(=O)n(C)c3=O)CC2)cc1 [Compound 9b, 2-(4-(4-(5-Fluoro-4’-methoxy-[1,1’-biphenyl]-2-yl)piperazin-1-yl)butyl)-4-methyl-1,2,4-triazine-3,5(2H,4H)-dione] | statistically significant recovery of cell viability | –
CC1Oc2ccc(OCCCN3CCN(c4ncccc4-c4ccncc4)CC3)cc2NC1=O (centres unmarked) [Compound 8a, 6-(3-(4-([3,4’-Bipyridin]-2-yl)piperazin-1-yl)propoxy)-2-methyl-2H-benzo[b][1,4]oxazin-3(4H)-one] | statistically significant recovery of cell viability | –
Cn1c(=O)cnn(CCCCN2CCN(c3ncccc3-c3ccncc3)CC2)c1=O [Compound 11b, 2-(4-(4-([3,4’-Bipyridin]-2-yl)piperazin-1-yl)butyl)-4-methyl-1,2,4-triazine-3,5(2H,4H)-dione] | – | not cytotoxic
CC1Oc2ccc(OCCCCN3CCN(c4ncccc4-c4ccncc4)CC3)cc2NC1=O (centres unmarked) [Compound 8b, 6-(4-(4-([3,4’-Bipyridin]-2-yl)piperazin-1-yl)butoxy)-2-methyl-2H-benzo[b][1,4]oxazin-3(4H)-one] | statistically significant recovery of cell viability | –
Cn1c(=O)cnn(CCCN2CCN(c3ncccc3-c3ccncc3)CC2)c1=O [Compound 11a, 2-(3-(4-([3,4’-Bipyridin]-2-yl)piperazin-1-yl)propyl)-4-methyl-1,2,4-triazine-3,5(2H,4H)-dione] | – | not cytotoxic
